Assay results: patent US7205295B2, “Benzoxazin-3-ones and derivatives thereof as therapeutic agents” (Warner-Lambert Company LLC, priority 2002, dated 2007)

Target: T1, PI3Kγ (p101/p110γ protein) (Homo sapiens, UniProt P48736)
T1 construct: HA; made in house; host or cells: Spodoptera frugiperda (Sf9) cells, baculovirus co-infection
Assay: PI3Kγ In Vitro Kinase Assay
Assay type: biochemical
Conditions: purified recombinant p101/p110γ with G protein β1/γ2 subunits; 20 μM ATP, 25 μM PIP2; 20 minutes at room temperature
Method: Spodtera frugiperda cells, grown in ESF921 media, were coinfected with baculovirus expressing a glu-tagged p101 and baculovirus expressing an HA-tagged p110γ, at a 3:1 ratio of p101 baculovirus to p110γ baculovirus. Sf9 cells were grown to 1×10^7 total cells/mL in 10L bioreactors and harvested 48-72 hours post infection. Samples of infected cells were then tested for expression of p101/p110γ PI3 kinase by immunoprecipitation and Western Blot analysis methods (see below). […] NaCl was added to 150 mM, and sodium cholate was added to 1% and mixed for another 45 minutes. The lysates were clarified by centrifugation for 25 minutes at 14,000 rpm. The lysates were then loaded over anti-glu-linked Protein-G Sepaharose beads (Covance Research Products, Richmond, Calif.) using 20 mL resin/50 g cell paste. […] PI3Kγ was eluted with 6 column volumes of wash buffer that contain 100 μg/mL of a peptide that competes for binding of the glu tag. […] The fractions were stored at -80° C. until further use. Spodtera frugiperda cells were coinfected with baculovirus expressing a glu-tagged G protein β1 and baculovirus expressing a G protein […] at a 1:1 ratio of glu-tagged G protein β1 baculovirus to G protein β2 baculovirus. Sf9 cells are grown in 10 L bioreactors and harvested 48-72 hours post infection. Samples of infected cells were tested for G protein β1/β2 expression by Western Blot analysis, as described below. Cell lysates were homogenized and loaded onto a column of glu-tagged beads as in Biological Example 1 and competed off the column with a glu peptide as described in Biological Example 1. The inhibitory properties of the compounds in Table 1 were assayed in an in vitro PI3K assay. In a 96-well polypropylene plate, each well was spotted with 2 μL of […] the desired final concentration of compound in DMSO. Purified recombinant p101/p110γ protein (0.03 μg; 2.7 nM) and G protein β1/γ2 subunits (0.09 μg; 57.7 nM) for each reaction was combined in the assay buffer (30 mM HEPES, 100 mM NaCl, 1 mM EGTA, and 1 mM DTT). ATP and [γ-^32P-ATP] (0.09 μCi) were added to this mixture so that the final ATP concentration in the reaction was 20 μM. Lipid micelles were formed by sonicating phosphatidylinositol-4,5-diphosphate (PIP2), phosphatidylethanolamine (PE), and Na-cholate in the assay buffer for 10 minutes, adding MgCL2 and incubating on ice for 20 minutes, for final concentrations of 25 μM PIP2, 300 [M PE, 0.02% Na-cholate, and 10 mM MgCl2 in the reaction. The reactions were started by adding equal volumes lipid and enzyme mixture in a total volume of 50 μL, allowed to run for 20 minutes at room temperature, and stopped with 100 μL 75 mM H3PO4. The lipid product was transferred to a glass fiber filter plate and washed with 75 mM H3PO4 several times. The presence of radioactive lipid product (PIP3) was measured by adding Wallac Optiphase mix to each well and counting in a Wallac 1450 Trilux plate reader (PerkinElmer Life Sciences Inc., Boston, Mass. 02118).

T1 sequence (P48736 whole entry, species assumed): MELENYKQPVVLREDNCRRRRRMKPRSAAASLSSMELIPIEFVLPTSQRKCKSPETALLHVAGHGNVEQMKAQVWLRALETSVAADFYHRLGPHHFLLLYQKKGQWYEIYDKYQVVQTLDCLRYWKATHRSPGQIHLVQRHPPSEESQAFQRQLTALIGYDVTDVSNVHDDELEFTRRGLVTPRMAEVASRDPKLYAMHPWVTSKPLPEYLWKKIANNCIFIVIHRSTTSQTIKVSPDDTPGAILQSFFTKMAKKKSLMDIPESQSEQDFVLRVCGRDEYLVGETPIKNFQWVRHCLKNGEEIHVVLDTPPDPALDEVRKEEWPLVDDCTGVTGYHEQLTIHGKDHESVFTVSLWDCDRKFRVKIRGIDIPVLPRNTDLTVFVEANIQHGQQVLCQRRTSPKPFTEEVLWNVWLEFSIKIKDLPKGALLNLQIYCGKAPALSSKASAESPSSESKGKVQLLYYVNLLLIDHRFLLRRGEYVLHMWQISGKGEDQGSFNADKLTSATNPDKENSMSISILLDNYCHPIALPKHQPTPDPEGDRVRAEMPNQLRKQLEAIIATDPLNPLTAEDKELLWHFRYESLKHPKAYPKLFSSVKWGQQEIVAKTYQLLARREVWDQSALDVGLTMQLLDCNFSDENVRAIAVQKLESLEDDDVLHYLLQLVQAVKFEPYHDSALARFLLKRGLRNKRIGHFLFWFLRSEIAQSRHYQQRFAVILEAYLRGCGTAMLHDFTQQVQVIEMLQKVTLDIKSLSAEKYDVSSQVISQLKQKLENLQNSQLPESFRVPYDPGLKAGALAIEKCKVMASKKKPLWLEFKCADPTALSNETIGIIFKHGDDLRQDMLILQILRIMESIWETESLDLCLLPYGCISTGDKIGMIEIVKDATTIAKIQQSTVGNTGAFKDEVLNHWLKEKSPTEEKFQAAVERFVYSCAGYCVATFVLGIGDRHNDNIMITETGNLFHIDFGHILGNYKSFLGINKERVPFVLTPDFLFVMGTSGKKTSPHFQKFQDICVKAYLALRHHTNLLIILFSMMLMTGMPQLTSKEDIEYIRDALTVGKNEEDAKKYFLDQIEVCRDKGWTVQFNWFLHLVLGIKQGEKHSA
T1 sequence (Q8WYR1 whole entry partner, species assumed): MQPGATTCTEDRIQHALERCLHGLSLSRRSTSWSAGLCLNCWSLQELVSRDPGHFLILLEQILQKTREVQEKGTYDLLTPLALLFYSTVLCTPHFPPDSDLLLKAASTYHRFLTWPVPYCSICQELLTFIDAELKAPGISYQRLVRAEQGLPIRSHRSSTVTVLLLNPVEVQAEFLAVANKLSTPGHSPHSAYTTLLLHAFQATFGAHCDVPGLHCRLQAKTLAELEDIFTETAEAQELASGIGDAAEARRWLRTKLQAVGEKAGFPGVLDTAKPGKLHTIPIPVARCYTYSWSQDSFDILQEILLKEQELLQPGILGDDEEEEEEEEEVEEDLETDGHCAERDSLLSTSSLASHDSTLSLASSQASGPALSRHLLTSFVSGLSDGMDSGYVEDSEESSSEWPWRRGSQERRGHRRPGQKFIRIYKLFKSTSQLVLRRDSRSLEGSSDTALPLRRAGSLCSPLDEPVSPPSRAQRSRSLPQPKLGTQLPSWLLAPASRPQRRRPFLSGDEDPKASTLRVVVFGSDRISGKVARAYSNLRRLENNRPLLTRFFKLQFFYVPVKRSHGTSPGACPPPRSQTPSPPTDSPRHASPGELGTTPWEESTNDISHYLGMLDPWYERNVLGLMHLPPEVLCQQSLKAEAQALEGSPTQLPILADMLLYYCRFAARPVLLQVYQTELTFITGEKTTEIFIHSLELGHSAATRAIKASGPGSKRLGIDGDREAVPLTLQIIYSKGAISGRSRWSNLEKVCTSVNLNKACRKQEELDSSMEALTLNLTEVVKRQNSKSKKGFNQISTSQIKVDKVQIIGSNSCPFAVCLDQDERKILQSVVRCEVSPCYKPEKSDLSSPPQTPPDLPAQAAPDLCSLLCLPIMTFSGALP

IC50 [nM] | SMILES
3 | C[C@@H]1CCC[C@H](C)N1Cc1ccc(CN2C(=O)COc3ccc(C=C4SC(=S)NC4=O)cc32)cc1 [Example 27, 4-[4-((2S, 6R)-2,6-Dimethyl-piperidin-1-ylmethyl)-benzyl]-6-(4-oxo-2-thioxo-thiazolidin-5-ylidenemethyl)-4H-1,4-benzoxazin-3-one]
3 | Cc1cc(C)cc(CN2C(=O)COc3c(C)cc(C=C4SC(=S)NC4=O)cc32)c1 [Example 28, 4-(3,5-Dimethyl-benzyl)-8-methyl-6-(4-oxo-2-thioxo-thiazolidin-5-ylidenemethyl)-4H-1,4-benzoxazin-3-one]
31 | O=C1NC(=S)SC1=Cc1ccc2c(c1)N(Cc1cc(C(F)(F)F)cc(C(F)(F)F)c1)C(=O)CO2 [Example 29, 4-(3,5-Bis-trifluoromethyl-benzyl)-6-(4-oxo-2-thioxo-thiazolidin-5-ylidenemethyl)-4H-1,4-benzoxazin-3-one]
2 | Cc1cc(C)cc(CCN2C(=O)COc3ccc(C=C4SC(=S)NC4=O)cc32)c1 [Example 30, 4-[2-(3,5-Dimethylphenyl)-ethyl]-6-(4-oxo-2-thioxo-thiazolidin-5-ylidenemethyl)-4H-1,4-benzoxazin-3-one]
83 | Cc1cccc(C)c1CN1C(=O)COc2ccc(C=C3SC(=S)NC3=O)cc21 [Example 31, 4-(2,6-Dimethyl-benzyl)-6-(4-oxo-2-thioxo-thiazolidin-5-ylidenemethyl)-4H-1,4-benzoxazin-3-one]
12 | CC(C)(C)c1cc(CN2C(=O)COc3ccc(C=C4SC(=S)NC4=O)cc32)cc(C(C)(C)C)c1 [Example 32, 4-(3,5-Di-tert-butyl-benzyl)-6-(4-oxo-2-thioxo-thiazolidin-5-ylidenemethyl)-4H-1,4-benzoxazin-3-one]
4 | CN1CCN(Cc2ccc(CN3C(=O)COc4ccc(C=C5SC(=S)NC5=O)cc43)cc2)CC1 [Example 33, 4-[4-(4-Methyl-piperazin-1-ylmethyl)-benzyl]-6-(4-oxo-2-thioxo-thiazolidin-5-ylidenemethyl)-4H-1,4-benzoxazin-3-one]
3 | O=C1NC(=S)SC1=Cc1ccc2c(c1)N(CCCc1ccccc1)C(=O)CO2 [Example 34, 6-(4-Oxo-2-thioxo-thiazolidin-5-ylidenemethyl)-4-(3-phenyl-propyl)-4H-1,4-benzoxazin-3-one]
12 | O=C1NC(=S)SC1=Cc1ccc2c(c1)N(Cc1ccc(CN3CCN(c4ccccc4)CC3)cc1)C(=O)CO2 [Example 35, 6-(4-Oxo-2-thioxo-thiazolidin-5-ylidenemethyl)-4-[4-(4-phenyl-piperazin-1-ylmethyl)-benzyl]-4H-1,4-benzoxazin-3-one]
2 | CC(C)(C)c1ccc(CN2C(=O)COc3ccc(C=C4SC(=S)NC4=O)cc32)cc1 [Example 36, 4-(4-tert-Butyl-benzyl)-6-(4-oxo-2-thioxo-thiazolidin-5-ylidenemethyl)-4H-1,4-benzoxazin-3-one]
1620 | C[C@@H]1Oc2ccc(C=C3SC(=S)NC3=O)cc2N(Cc2cc(C(C)(C)C)cc(C(C)(C)C)c2)C1=O [Example 37, (S)-4-(3,5-Di-tert-butyl-benzyl)-2-methyl-6-(4-oxo-2-thioxo-thiazolidin-5-ylidenemethyl)-4H-1,4-benzoxazin-3-one]
6 | O=C1NC(=S)SC1=Cc1ccc2c(c1)N(Cc1cccc(-c3ccccc3)c1)C(=O)CO2 [Example 38, 4-Biphenyl-3-ylmethyl-6-(4-oxo-2-thioxo-thiazolidin-5-ylidenemethyl)-4H-1,4-benzoxazin-3-one]
335 | Cc1cc(CN2C(=O)COc3ccc(C=C4SC(=S)NC4=O)cc32)cc(C)c1CN1CCOCC1 [Example 39, 4-(3,5-Dimethyl-4-morpholin-4-ylmethyl-benzyl)-6-(4-oxo-2-thioxo-thiazolidin-5-ylidenemethyl)-4H-1,4-benzoxazin-3-one]
15 | O=C1NC(=S)SC1=Cc1ccc2c(c1)N(Cc1cccc(I)c1)C(=O)CO2 [Example 40, 4-(3-Iodo-benzyl)-6-(4-oxo-2-thioxo-thiazolidin-5-ylidenemethyl)-4H-1,4-benzoxazin-3-one]
61 | O=C1NC(=S)SC1=Cc1ccc2c(c1)N(Cc1cc(Br)cc(I)c1)C(=O)CO2 [Example 41, 4-(3-Bromo-5-iodo-benzyl)-6-(4-oxo-2-thioxo-thiazolidin-5-ylidenemethyl)-4H-1,4-benzoxazin-3-one]
41 | Cc1cc(CN2CCOCC2)cc(CN2C(=O)COc3ccc(C=C4SC(=S)NC4=O)cc32)c1 [Example 42, 4-(3-Methyl-5-morpholin-4-ylmethyl-benzyl)-6-(4-oxo-2-thioxo-thiazolidin-5-ylidenemethyl)-4H-1,4-benzoxazin-3-one]
1440 | O=C1NC(=S)SC1=Cc1ccc2c(c1)N(Cc1cc(-c3ccccc3)cc(-c3ccccc3)c1)C(=O)CO2 [Example 43, 6-(4-Oxo-2-thioxo-thiazolidin-5-ylidenemethyl)-4-1,1′,3′,1″-terphenyl-5′-ylmethyl-4H-1,4-benzoxazin-3-one]
265 | O=C1NC(=S)SC1=Cc1ccc2c(c1)N(Cc1cc(OS(=O)(=O)C(F)(F)F)cc(OS(=O)(=O)C(F)(F)F)c1)C(=O)CO2 [Example 44, Trifluoro-methanesulfonic acid 3-[3-oxo-6-(4-oxo-2-thioxo-thiazolidin-5-ylidenemethyl)-2,3-dihydro-1,4-benzoxazin-4-ylmethyl]-5-trifluoromethanesulfonyloxy-phenyl ester]
336 | CC(C)(C)c1cc(CN2C(=O)COc3ccc(C=C4SC(=S)NC4=O)cc32)cc(C(C)(C)C)n1 [Example 45, 4-(2,6-Di-tert-butyl-pyridin-4-ylmethyl)-6-(4-oxo-2-thioxo-thiazolidin-5-ylidenemethyl)-4H-1,4-benzoxazin-3-one]
8 | O=C1NC(=S)SC1=Cc1cc(F)c2c(c1)N(Cc1ccccc1)C(=O)CO2 [Example 46, 4-Benzyl-8-fluoro-6-(4-oxo-2-thioxo-thiazolidin-5-ylidenemethyl)-4H-1,4-benzoxazin-3-one]
320 | CC(C)(C)c1cc(CN2C(=O)COc3c(Cl)cc(C=C4SC(=S)NC4=O)cc32)cc(C(C)(C)C)c1 [Example 47, 8-Chloro-4-(3,5-di-tert-butyl-benzyl)-6-(4-oxo-2-thioxo-thiazolidin-5-ylidenemethyl)-4H-1,4-benzoxazin-3-one]
42 | CN1CCN(Cc2cccc(CN3C(=O)COc4ccc(C=C5SC(=S)NC5=O)cc43)c2)CC1 [Example 48, 4-[3-(4-Methyl-piperazin-1-ylmethyl)-benzyl]-6-(4-oxo-2-thioxo-thiazolidin-5-ylidenemethyl)-4H-1,4-benzoxazin-3-one]
61 | O=C1COc2c(Cl)cc(C=C3SC(=S)NC3=O)cc2N1 [Example 49, 8-Chloro-6-(4-oxo-2-thioxo-thiazolidin-5-ylidenemethyl)-4H-1,4-benzoxazin-3-one]
10 | O=C1NC(=S)SC1=Cc1cc(Cl)c2c(c1)N(Cc1ccccc1)C(=O)CO2 [Example 50, 4-Benzyl-8-chloro-6-(4-oxo-2-thioxo-thiazolidin-5-ylidenemethyl)-4H-1,4-benzoxazin-3-one]
165 | COc1cc(C=C2SC(=S)NC2=O)cc2c1OCC(=O)N2Cc1cc(C(C)(C)C)cc(C(C)(C)C)c1 [Example 51, 4-(3,5-Di-tert-butyl-benzyl)-8-methoxy-6-(4-oxo-2-thioxo-thiazolidin-5-ylidenemethyl)-4H-1,4-benzoxazin-3-one]
16 | CC(C)(C)c1cc(I)cc(CN2C(=O)COc3ccc(C=C4SC(=S)NC4=O)cc32)c1 [Example 52, 4-(3-tert-Butyl-5-iodo-benzyl)-6-(4-oxo-2-thioxo-thiazolidin-5-ylidenemethyl)-4H-1,4-benzoxazin-3-one]
43 | O=C1COc2c(F)cc(C=C3SC(=S)NC3=O)cc2N1 [Example 53, 8-Fluoro-6-(4-oxo-2-thioxo-thiazolidin-5-ylidenemethyl)-4H-1,4-benzoxazin-3-one]
